The record followed here is ChEMBL document CHEMBL4825693, “Discovery of novel N-sulfonamide-tetrahydroisoquinolines as potent retinoic acid receptor-related orphan receptor γt agonists” (Eur J Med Chem, 2021).

Assay [1] has as its target T1, Nuclear receptor ROR-gamma (Homo sapiens, UniProt P51449).
T1 sequence (P51449 whole entry): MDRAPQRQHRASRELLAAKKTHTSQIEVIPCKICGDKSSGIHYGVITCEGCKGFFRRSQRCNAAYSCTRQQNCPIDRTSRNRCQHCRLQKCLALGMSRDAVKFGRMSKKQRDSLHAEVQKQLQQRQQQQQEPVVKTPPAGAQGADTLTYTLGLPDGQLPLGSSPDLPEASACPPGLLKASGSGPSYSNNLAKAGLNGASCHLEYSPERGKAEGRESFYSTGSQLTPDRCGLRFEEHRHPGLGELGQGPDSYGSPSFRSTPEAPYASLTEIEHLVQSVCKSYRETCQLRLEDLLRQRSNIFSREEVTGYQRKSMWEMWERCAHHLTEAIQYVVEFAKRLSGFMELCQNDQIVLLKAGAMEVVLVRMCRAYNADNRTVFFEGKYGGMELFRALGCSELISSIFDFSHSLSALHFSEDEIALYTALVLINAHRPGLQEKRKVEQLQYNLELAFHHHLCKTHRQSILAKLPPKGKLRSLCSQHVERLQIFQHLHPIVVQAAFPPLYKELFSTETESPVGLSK
The assay can be described thus: Agonist activity at europium-labeled human RORgammat LBD assessed as induction of XL665-labeled co-activator SRC1 recruitment incubated for 1 hr by dual FRET assay.

Assay [2] has as its target T2, Nuclear receptor ROR-gamma (Mus musculus) (UniProt P51450).
T2 sequence (whole entry): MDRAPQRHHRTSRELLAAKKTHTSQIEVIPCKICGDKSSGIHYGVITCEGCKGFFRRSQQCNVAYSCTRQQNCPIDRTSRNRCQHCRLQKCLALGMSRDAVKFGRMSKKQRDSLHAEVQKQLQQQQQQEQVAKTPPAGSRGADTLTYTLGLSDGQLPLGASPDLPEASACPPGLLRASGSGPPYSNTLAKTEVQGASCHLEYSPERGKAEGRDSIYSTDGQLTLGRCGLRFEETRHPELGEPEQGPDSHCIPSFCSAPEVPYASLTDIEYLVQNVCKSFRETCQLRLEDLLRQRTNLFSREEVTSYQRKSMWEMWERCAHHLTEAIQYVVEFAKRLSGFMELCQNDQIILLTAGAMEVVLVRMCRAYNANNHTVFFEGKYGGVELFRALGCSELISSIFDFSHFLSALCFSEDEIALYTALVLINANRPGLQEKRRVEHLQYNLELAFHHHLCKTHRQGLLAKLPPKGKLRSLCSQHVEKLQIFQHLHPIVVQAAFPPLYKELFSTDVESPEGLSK
Kind of assay: Agonist activity at RORgammat in C57 mouse CD4+ T cells assessed as induction of Th17 cells differentiation by measuring increase in IL17 production measured after 4 days by flow cytometry analysis relative to control. It is filed as cell-based. The note with it: CD4+ve Th, filed as agonist, time 4.0 day. In general terms: A flow cytometer gives signals particle by particle.

Assay [3] deals with T1, Nuclear receptor ROR-gamma. The assay can be described thus: Agonist activity at human RORgammat LBD expressed in HEK293T cells incubated for 16 to 20 hrs by Gal4-luciferase reporter gene assay. The format is cell-based. For orientation: A reporter such as luciferase makes a cellular process visible.
The target in assay [4] is T1, Nuclear receptor ROR-gamma. The assay can be described thus: Inverse agonist activity at europium-labeled human RORgammat LBD assessed as inhibition of XL665-labeled co-activator SRC1 recruitment incubated for 1 hr by dual FRET assay.
Assay [5] concerns the target T3, Nuclear receptor ROR-gamma (Homo sapiens) (UniProt P51449).
T3 sequence (whole entry): T1 sequence (P51449 whole entry)
Kind of assay: Inverse agonist activity at europium-labeled human RORgammat LBD assessed as inhibition of XL665-labeled co-activator SRC1 recruitment incubated for 1 hr by dual FRET assay relative to control. The note with it: concentration not given here.

What is called EC50 is the concentration needed to bring the measured effect to its halfway point. For the compound `CC(=O)N1CCN(c2ccc3c(c2)CCN(S(=O)(=O)N(C)c2nccc(C(F)(F)F)n2)C3)CC1`, in assay [1], the EC50 was found to be 6240 nM.

For the compound `CC(=O)N1CCN(c2ccc3c(c2)CCN(S(=O)(=O)N(C)CCc2ccccc2)C3)CC1`, the EC50 in assay [1] is 2230 nM.

Consider `CC(=O)N1CCN(c2ccc3c(c2)CCN(S(=O)(=O)N(C)Cc2ccccc2C)C3)CC1`, for which the EC50 in assay [1] worked out at 221 nM. With `CC(=O)N1CCN(c2ccc3c(c2)CCN(S(=O)(=O)N(C)Cc2cc(F)ccc2F)C3)CC1`, the EC50 in assay [1] is 148 nM. For `CC(=O)N1CCN(c2ccc3c(c2)CCN(S(=O)(=O)N(C)Cc2ccccn2)C3)CC1`, in assay [1], the EC50 was 12300 nM. Turning to `CC(=O)N1CCN(c2ccc3c(c2)CCN(S(=O)(=O)N(C)Cc2cccc(F)c2)C3)CC1`, the EC50 in assay [1] amounted to 546 nM. In the case of `CC(=O)N1CCN(c2ccc3c(c2)CCN(S(=O)(=O)N(C)Cc2ccccc2Cl)C3)CC1`, in assay [2], the max activation turned out to be 93%. In addition, the values for the EC50 in assay [1] and in assay [3] were 982 nM and 740 nM, respectively. For the compound `CC(=O)N1CCN(c2ccc3c(c2)CCN(S(=O)(=O)N(C)Cc2ccccc2F)C3)CC1`, the EC50 in assay [1] was determined as 358 nM. Regarding `CC(=O)N1CCN(c2ccc3c(c2)CCN(S(=O)(=O)N(C)Cc2c(F)cccc2Cl)C3)[C@H](C)C1`, the EC50 in assay [1] was found to be 23 nM. A word on the inhibition: it is the drop in the measured response relative to a control, in per cent. Turning to `CC(=O)N1CCN(c2ccc3c(c2)CCN(S(=O)(=O)N(C)Cc2ccc(C(F)(F)F)cc2)C3)CC1`, the EC50 in assay [4] amounted to 1980 nM. Further, the inhibition in assay [5] amounted to 25.8%. Take `CC(=O)N1CCN(c2ccc3c(c2)CCN(S(=O)(=O)N(C)Cc2cccc(Cl)c2)C3)CC1`: the EC50 in assay [1] came to 138 nM.

Regarding `CC(=O)N1CCN(c2ccc3c(c2)CCN(S(=O)(=O)N(C)Cc2ccccc2)C3)CC1`, the EC50 in assay [1] was determined as 560 nM. `CC(=O)N1CCN(c2ccc3c(c2)CCN(S(=O)(=O)N(C)Cc2ccc(F)cc2)C3)CC1`: the EC50 in assay [1] was 1020 nM.

Turning to `CC(=O)N1CCN(c2ccc3c(c2)CCN(S(=O)(=O)N(C)Cc2cccc(C)c2)C3)CC1`, the EC50 in assay [1] was found to be 215 nM.

By IC50 is commonly meant the point on the concentration scale where inhibition reaches its midpoint. Regarding `CC(=O)N1CCN(c2ccc3c(c2)CCCN3S(=O)(=O)N(C)Cc2ccccc2Cl)CC1`, the IC50 in assay [4] worked out at 167 nM. On to `CC(=O)N1CCN(c2ccc3c(c2)CCN(S(=O)(=O)N(C)CCCc2ccccc2)C3)CC1`, for which the EC50 in assay [1] worked out at 570 nM.

`CC(=O)N1CCN(c2ccc3c(c2)CCN(S(=O)(=O)N(C)Cc2c(F)cccc2Cl)C3)CC1`: the max activation in assay [2] was found to be 167%. Further, the EC50 came to 21 nM in assay [1] and 190 nM in assay [3].
